Patent US20230085307A1, “PYRIDAZINONE COMPOUND AND HERBICIDE” (NISSAN CHEMICAL CORPORATION, priority 2019, published 2023)

What was measured:
Italian ryegrass [1] = experiment: Test Example 4: herbicidal effect by soil treatment (Table 19, symbol K); assay type: in vivo, Italian ryegrass (Lolium multiflorum); settings: amount of applied herbicide 320 g/ha
How it was run: (§1)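 Three weeks of greenhouse growth at 25° C. to 30° C. followed a uniform surface spray of water-diluted emulsion at a predetermined herbicide amount. Seeds had been sown beforehand under about 1.5 cm of sterilized diluvial soil. Grading followed criteria set out in an earlier test.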

persian speedwell [2] = experiment: Test Example 4: herbicidal effect by soil treatment (Table 19, symbol R); assay type: in vivo, Persian speedwell (Veronica persica); settings: amount of applied herbicide 320 g/ha
How it was run: as §1

lambsquarters [3] = experiment: Test Example 4: herbicidal effect by soil treatment (Table 19, symbol O); assay type: in vivo, lambsquarters (Chenopodium album); settings: amount of applied herbicide 320 g/ha
How it was run: as §1

windgrass [4] = experiment: Test Example 4: herbicidal effect by soil treatment (Table 19, symbol L); assay type: in vivo, windgrass (Apera spica-venti); settings: amount of applied herbicide 320 g/ha
How it was run: as §1

velvetleaf [5] = experiment: Test Example 4: herbicidal effect by soil treatment (Table 19, symbol M); assay type: in vivo, velvetleaf (Abutilon theophrasti); settings: amount of applied herbicide 320 g/ha
How it was run: as §1

southern crabgrass [6] = experiment: Test Example 4: herbicidal effect by soil treatment (Table 19, symbol F); assay type: in vivo, southern crabgrass (Digitaria ciliaris); settings: amount of applied herbicide 320 g/ha
How it was run: as §1

lambsquarters [7] = experiment: Test Example 5: herbicidal effect by foliage application, plastic box (Table 20, symbol O); assay type: in vivo, lambsquarters (Chenopodium album); settings: 320 g/ha
How it was run: (§2)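 Plants sown in sterilized diluvial soil and grown 14 days in a greenhouse at 25° C to 30° C, then sprayed on the foliage with the compound's emulsion diluted in water to a predetermined herbicide amount. Injury to weeds and crops scored three weeks after application on a visual rating scale.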

green foxtail [8] = experiment: Test Example 4: herbicidal effect by soil treatment (Table 19, symbol G); assay type: in vivo, green foxtail (Setaria viridis); settings: amount of applied herbicide 320 g/ha
How it was run: as §1

wild oat [9] = experiment: Test Example 5: herbicidal effect by foliage application, plastic box (Table 20, symbol I); assay type: in vivo, wild oat (Avena fatua); settings: 320 g/ha
How it was run: as §2

redroot pigweed [10] = experiment: Test Example 4: herbicidal effect by soil treatment (Table 19, symbol N); assay type: in vivo, redroot pigweed (Amaranthus retroflexus); settings: amount of applied herbicide 320 g/ha
How it was run: as §1

blackgrass [11] = experiment: Test Example 4: herbicidal effect by soil treatment (Table 19, symbol J); assay type: in vivo, blackgrass (Alopecurus myosuroides); settings: amount of applied herbicide 320 g/ha
How it was run: as §1

windgrass [12] = experiment: Test Example 5: herbicidal effect by foliage application, plastic box (Table 20, symbol L); assay type: in vivo, windgrass (Apera spica-venti); settings: 320 g/ha
How it was run: as §2

Italian ryegrass [13] = experiment: Test Example 5: herbicidal effect by foliage application, plastic box (Table 20, symbol K); assay type: in vivo, Italian ryegrass (Lolium multiflorum); settings: 320 g/ha
How it was run: as §2

green foxtail [14] = experiment: Test Example 5: herbicidal effect by foliage application, plastic box (Table 20, symbol G); assay type: in vivo, green foxtail (Setaria viridis); settings: 320 g/ha
How it was run: as §2

blackgrass [15] = experiment: Test Example 5: herbicidal effect by foliage application, plastic box (Table 20, symbol J); assay type: in vivo, blackgrass (Alopecurus myosuroides); settings: 320 g/ha
How it was run: as §2

velvetleaf [16] = experiment: Test Example 5: herbicidal effect by foliage application, plastic box (Table 20, symbol M); assay type: in vivo, velvetleaf (Abutilon theophrasti); settings: 320 g/ha
How it was run: as §2

redroot pigweed [17] = experiment: Test Example 5: herbicidal effect by foliage application, plastic box (Table 20, symbol N); assay type: in vivo, redroot pigweed (Amaranthus retroflexus); settings: 320 g/ha, foliage application after 14-day growth, evaluated three weeks after application
How it was run: as §2

southern crabgrass [18] = experiment: Test Example 5: herbicidal effect by foliage application, plastic box (Table 20, symbol F); assay type: in vivo, southern crabgrass (Digitaria ciliaris); settings: 320 g/ha
How it was run: as §2

rice flat sedge = experiment: Test Example 3: herbicidal effect by foliage application, Wagner pot (Table 18, symbol E); assay type: in vivo, rice flat sedge (Cyperus iria); settings: 320 g/ha
How it was run: (§3)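 Plants were sown in alluvial soil held under 0.1–0.5 cm standing water and grown 14 days in a greenhouse at 25–30 °C. An emulsifiable formulation, water-diluted to the set dose, was then sprayed onto the foliage, and effects were scored three weeks later using previously defined criteria.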

Chinese sprangletop = experiment: Test Example 3: herbicidal effect by foliage application, Wagner pot (Table 18, symbol D); assay type: in vivo, chinese sprangletop (Leptochloa chinensis); settings: 320 g/ha
How it was run: as §3

barnyard grass [19] = experiment: Test Example 5: herbicidal effect by foliage application, plastic box (Table 20, symbol H); assay type: in vivo, barnyard grass (Echinochloa crus-galli); settings: 320 g/ha
How it was run: as §2

wild oat [20] = experiment: Test Example 4: herbicidal effect by soil treatment (Table 19, symbol I); assay type: in vivo, wild oat (Avena fatua); settings: amount of applied herbicide 320 g/ha
How it was run: as §1

persian speedwell [21] = experiment: Test Example 5: herbicidal effect by foliage application, plastic box (Table 20, symbol R); assay type: in vivo, Persian speedwell (Veronica persica); settings: 320 g/ha
How it was run: as §2

barnyard grass [22] = experiment: Test Example 4: herbicidal effect by soil treatment (Table 19, symbol H); assay type: in vivo, barnyard grass (Echinochloa crus-galli); settings: amount of applied herbicide 320 g/ha
How it was run: as §1

chickweed = experiment: Test Example 4: herbicidal effect by soil treatment (Table 19, symbol P); assay type: in vivo, common chickweed (Stellaria media); settings: amount of applied herbicide 320 g/ha
How it was run: as §1

barnyard grass [23] = experiment: Test Example 3: herbicidal effect by foliage application, Wagner pot (Table 18, symbol H); assay type: in vivo, barnyard grass (Echinochloa crus-galli); settings: 320 g/ha
How it was run: as §3

[24] = foliage application after 14-day growth, evaluated three weeks after application
[25] = foliage application, three weeks after application

Question: Which “Herbicidal effect by soil treatment, K: Italian ryegrass” value (Italian ryegrass [1]) does the source give for `CCOc1cccc(-c2sc3c(Cl)cccc3c2-c2c(O)c(C)nn(C)c2=O)c1` [4-066] here?
Answer: 0 (Herbicidal rate of 5% or less (almost no effect))

Question: What about the “Herbicidal effect by soil treatment, R: persian speedwell” value (persian speedwell [2]) of the same molecule?
Answer: 4 (Herbicidal rate of 70% or more and less than 90%)

Question: What about the “Herbicidal effect by soil treatment, O: lambsquarters” value (lambsquarters [3]) of the same molecule?
Answer: 0 (Herbicidal rate of 5% or less (almost no effect))

Question: And the “Herbicidal effect by soil treatment, L: windgrass” value (windgrass [4])?
Answer: 0 (Herbicidal rate of 5% or less (almost no effect))

Question: And the “Herbicidal effect by soil treatment, M: velvetleaf” value (velvetleaf [5])?
Answer: 0 (Herbicidal rate of 5% or less (almost no effect))

Question: And the “Herbicidal effect by soil treatment, F: southern crabgrass” value (southern crabgrass [6])?
Answer: 0 (Herbicidal rate of 5% or less (almost no effect))

Question: And the “herbicidal effect on O: lambsquarters (evaluation grade 0-5)” value (lambsquarters [7]; [24])?
Answer: 3 (Herbicidal rate of 40% or more and less than 70%)

Question: What about the “Herbicidal effect by soil treatment, G: green foxtail” value (green foxtail [8]) of the same molecule?
Answer: 0 (Herbicidal rate of 5% or less (almost no effect))

Question: And the “herbicidal effect on I: wild oat (evaluation grade 0-5)” value (wild oat [9]; [24])?
Answer: 0 (Herbicidal rate of 5% or less (almost no effect))

Question: And the “Herbicidal effect by soil treatment, N: redroot pigweed” value (redroot pigweed [10])?
Answer: 0 (Herbicidal rate of 5% or less (almost no effect))

Question: What about the “Herbicidal effect by soil treatment, J: blackgrass” value (blackgrass [11]) of the same molecule?
Answer: 0 (Herbicidal rate of 5% or less (almost no effect))

Question: What about the “herbicidal effect on L: windgrass (evaluation grade 0-5)” value (windgrass [12]; [24]) of the same molecule?
Answer: 0 (Herbicidal rate of 5% or less (almost no effect))

Question: What about the “herbicidal effect on K: Italian ryegrass (evaluation grade 0-5)” value (Italian ryegrass [13]; [24]) of the same molecule?
Answer: 3 (Herbicidal rate of 40% or more and less than 70%)

Question: And the “herbicidal effect on G: green foxtail (evaluation grade 0-5)” value (green foxtail [14]; [24])?
Answer: 1 (Herbicidal rate of 5% or more and less than 20%)

Question: And the “herbicidal effect on J: blackgrass (evaluation grade 0-5)” value (blackgrass [15]; [24])?
Answer: 0 (Herbicidal rate of 5% or less (almost no effect))

Question: What about the “herbicidal effect on M: velvetleaf (evaluation grade 0-5)” value (velvetleaf [16]; [24]) of the same molecule?
Answer: 4 (Herbicidal rate of 70% or more and less than 90%)

Question: What about the “herbicidal effect on N: redroot pigweed (evaluation grade 0-5)” value (redroot pigweed [17]) of the same molecule?
Answer: 4 (Herbicidal rate of 70% or more and less than 90%)

Question: And the “herbicidal effect on F: southern crabgrass (evaluation grade 0-5)” value (southern crabgrass [18]; [24])?
Answer: 0 (Herbicidal rate of 5% or less (almost no effect))

Question: What about the “herbicidal effect on rice flat sedge (E)” value (rice flat sedge) of the same molecule?
Answer: 3 (Herbicidal rate of 40% or more and less than 70%)

Question: And the “herbicidal effect on Chinese sprangletop (D)” value (Chinese sprangletop)?
Answer: 0 (Herbicidal rate of 5% or less (almost no effect))

Question: And the “herbicidal effect on H: barnyard grass (evaluation grade 0-5)” value (barnyard grass [19]; [24])?
Answer: 3 (Herbicidal rate of 40% or more and less than 70%)

Question: And the “Herbicidal effect by soil treatment, I: wild oat” value (wild oat [20])?
Answer: 0 (Herbicidal rate of 5% or less (almost no effect))

Question: And the “herbicidal effect on R: persian speedwell (evaluation grade 0-5)” value (persian speedwell [21]; [24])?
Answer: 3 (Herbicidal rate of 40% or more and less than 70%)

Question: What about the “Herbicidal effect by soil treatment, H: barnyard grass” value (barnyard grass [22]) of the same molecule?
Answer: 0 (Herbicidal rate of 5% or less (almost no effect))

Question: What about the “Herbicidal effect by soil treatment, P: chickweed” value (chickweed) of the same molecule?
Answer: 0 (Herbicidal rate of 5% or less (almost no effect))

Question: Which results are given for `CCCC(=O)Oc1c(C)nn(C)c(=O)c1-c1c(-c2ccc(F)cc2OCC)sc2cc(Cl)c(Cl)cc12` [5-054]?
Answer: herbicidal effect on barnyard grass (H) (barnyard grass [23]): 4 (Herbicidal rate of 70% or more and less than 90%); K: Italian ryegrass, herbicidal effect grade (Italian ryegrass [1]): 0 (Herbicidal rate of 5% or less (almost no effect)); R: persian speedwell, herbicidal effect grade (persian speedwell [2]): 0 (Herbicidal rate of 5% or less (almost no effect)); O: lambsquarters, herbicidal effect grade (lambsquarters [3]): 0 (Herbicidal rate of 5% or less (almost no effect)); L: windgrass, herbicidal effect grade (windgrass [4]): 0 (Herbicidal rate of 5% or less (almost no effect)); M: velvetleaf, herbicidal effect grade (velvetleaf [5]): 0 (Herbicidal rate of 5% or less (almost no effect)); F: southern crabgrass, herbicidal effect grade (southern crabgrass [6]): 0 (Herbicidal rate of 5% or less (almost no effect)); herbicidal effect on lambsquarters (O) (lambsquarters [7]; [25]): 3 (Herbicidal rate of 40% or more and less than 70%); G: green foxtail, herbicidal effect grade (green foxtail [8]): 0 (Herbicidal rate of 5% or less (almost no effect)); herbicidal effect on wild oat (I) (wild oat [9]; [25]): 0 (Herbicidal rate of 5% or less (almost no effect)); N: redroot pigweed, herbicidal effect grade (redroot pigweed [10]): 0 (Herbicidal rate of 5% or less (almost no effect)); J: blackgrass, herbicidal effect grade (blackgrass [11]): 0 (Herbicidal rate of 5% or less (almost no effect)); herbicidal effect on windgrass (L) (windgrass [12]; [25]): 1 (Herbicidal rate of 5% or more and less than 20%); herbicidal effect on Italian ryegrass (K) (Italian ryegrass [13]; [25]): 0 (Herbicidal rate of 5% or less (almost no effect)); herbicidal effect on green foxtail (G) (green foxtail [14]; [25]): 2 (Herbicidal rate of 20% or more and less than 40%); herbicidal effect on blackgrass (J) (blackgrass [15]; [25]): 0 (Herbicidal rate of 5% or less (almost no effect)); herbicidal effect on velvetleaf (M) (velvetleaf [16]; [25]): 4 (Herbicidal rate of 70% or more and less than 90%); herbicidal effect on southern crabgrass (F) (southern crabgrass [18]; [25]): 2 (Herbicidal rate of 20% or more and less than 40%); herbicidal effect on rice flat sedge (E) (rice flat sedge): 5 (Herbicidal rate of 90% or more (almost completely withered)); herbicidal effect on Chinese sprangletop (D) (Chinese sprangletop): 2 (Herbicidal rate of 20% or more and less than 40%); herbicidal effect on barnyard grass (H) (barnyard grass [19]; [25]): 4 (Herbicidal rate of 70% or more and less than 90%); I: wild oat, herbicidal effect grade (wild oat [20]): 0 (Herbicidal rate of 5% or less (almost no effect)); herbicidal effect on persian speedwell (R) (persian speedwell [21]; [25]): 4 (Herbicidal rate of 70% or more and less than 90%); H: barnyard grass, herbicidal effect grade (barnyard grass [22]): 0 (Herbicidal rate of 5% or less (almost no effect)); P: chickweed, herbicidal effect grade (chickweed): 2 (Herbicidal rate of 20% or more and less than 40%)
